Measurements reported in patent publication US6897298B2, “Method for extracting a compound from a ginseng spp. plant, ginseng or pseudo-ginseng” (priority 2001, dated 2005).
Like-named read-outs stand apart in the source and are kept apart here.

Tests used:
[1] = test system: cerebral arteria embolisms/reperfusion injury rat model; assay: Measurement of area of cerebral embolisms (TTC staining) after cerebral ischemia/reperfusion; type: in vivo
Procedure: (§1) Prepare cerebral arteria embolisms/reperfusion injury rat model according to Longna method. To bring the animal into a state of narcosis, give an intravenous injection of urethane (0.4 ml/100 g weight). Maintain body temperature of the rat at 37±0.5° C. (anal temperature). Let the rat lie on a plate with face toward the ceiling. Make a cut at the right middle of its neck. By means of microsurgery techniques, separate left neck communis and its branches. Isolate arteria carotis externa. By means of electric solidification, cut off occipital arteria, thyroid superia gland arteria, and arteria phyrynix externa, all of which are setting out from arteria carotis externa. Isolate arteria carotis externa further towards the head end. Tie the arteria carotis externa at a place as far as possible. Clamp the beginning part of the arteria carotis externa to make it close with an artery clamp. Tie a loose knot (with 5-0 silk thread going through the arteria carotis externa) at a place between the artery clamp and the tying thread. […]
Open the cranium and take the whole brain. […] The area of obstructed cerebral tissue was measured with a fully automatic image analysis system (Model IPAS-C, Kontror Co, Germany). […] For this experiment, the average value of those measured of slices 2 and 3 were taken as the measured result for each animal's area of obstruction. […]

[2] = Physical and chemical properties: solubility; type: physicochemical; conditions: substance obtained in Example 1
Procedure: Physical and chemical property tests and element analysis were carried out for the substance. Also done were its mass spectra, infrared and ultraviolet spectrum, ^1H and ^13C nuclear magnetic resonance tests. The conditions and results were:
Physical and chemical properties: white or a little yellow powder. Melting point—209˜214° C.

[3] = test system: cerebral ischemia/reperfusion injury rats; assay: SOD activity in cerebral tissue homogenate (pyrogallol self-oxidation method); type: in vivo, rat; conditions: Compound (I) 50 mg/kg, Nimodipine 40 μg/kg iv; 5 h after reperfusion; normal 70.30±24.7 u/g, salt-water 46.7±16.6 u/g
Procedure: 38 rats were used. After making cerebral ischemia/reperfusion injury, the rats were randomly divided into groups of contrast (equal volume of physiological salt-water), Nimodipine treatment (40 μg/kg), and Compound (I) treatment (50 mg/kg). […] After another 5 minutes, drug was given iv under tongue. 60 minutes after cerebral ischemia was made, reperfusion was made. After another 5 hours, rat brains were stripped off rapidly according to Gotoh Method. Right and left brain hemispheres were weighed respectively, and were kept in fridge at −70° C.
The tissue to be measured (about 0.3˜0.5) were washed clean with physiological salt-water. Then cold distilled water was used to prepare homogenate on a glass blender. Then centrifugal machine was set at 1,500 rpm to work for 15 minutes, the temperature being 0° C. […]
(1) SOD measurement (pyrogallol self-oxidation method): Take a 15 ml test tube. […] Change of absorbance is measured under conditions of: ultra-violet spectrophotometer (UV 1601 PC, Shimatsu Co., Japan), wavelength of 325 nm, and slit of 2. Then activity units are calculated according to the following formula: Tissue homogenate SOD(u/g cerebral tissue)=(control tube−sample tube)/control tube/0.5×1/cerebral tissue weight (g)

[4] = Three kinds of experiments (disability, cancer, mutation)
Excerpt: Therefore, its cure effects are good.

[5] = test system: cerebral arteria embolisms/reperfusion injury rat model; assay: Behavior change score (Longa method); type: in vivo; conditions: 5 hours after reperfusion
Procedure: as §1, with “thread. At a place close to the knot, cut to block the arteria carotis externa. Put into the arteria carotis externa a 3-0 nylon thread, which is 5 cm long and has a drumstick-like head. Tie a fast knot on the silk thread on the arteria crotis externa to avoid bleeding. Remove the arteria clamp. Push the nylon thread slowly into the arteria carotis externa.” for “thread.”

Acute toxicity test = conditions: in vivo, Mouse
Excerpt: Results of acute toxicity test for Compound (I) were: […]

[6] = test system: cerebral arteria embolisms/reperfusion injury rat model; assay: Pathological exam of nerve cells and nerve fibers (HE, myelin staining); type: in vivo; conditions: iv 50 mg/kg, 10 mg/kg and 2 mg/kg; dosage-dependent
Procedure: as §1, with “thread. At a place close to the knot, cut to block the arteria carotis externa. Put into the arteria carotis externa a 3-0 nylon thread, which is 5 cm long and has a drumstick-like head. Tie a fast knot on the silk thread on the arteria crotis externa to avoid bleeding. Remove the arteria clamp. Push the nylon thread slowly into the arteria carotis externa.” for “thread.”

[7] = test system: cerebral arteria embolisms/reperfusion injury rat model; assay: Measurement of water content in brain tissue; type: in vivo; conditions: Compound (I) intravenous injection
[8] = test system: cerebral ischemia/reperfusion injury rats; assay: MDA content in cerebral tissue homogenate (TBA method); type: in vivo, rat; conditions: Compound (I) 50 mg/kg, Nimodipine 40 μg/kg iv; 5 h after reperfusion; salt-water group 87.7±27.5; p>0.05 vs normal group
[9] = test system: cerebral arteria embolisms/reperfusion injury rat model; assay: Scanning record of electroencephalogram after cerebral ischemia/reperfusion; type: in vivo; conditions: 1 h block
Procedure: as §1, with “thread. At a place close to the knot, cut to block the arteria carotis externa.” for “thread.”
One needle-type electrode was placed at top forehead. […] Electroencephalogram change outside of skin before and after obstruction was recorded with 8-lead physiological recorder made by Japan Optical-Electric Co.

Rats = conditions: for toxicity finding: iv 14 days

| SMILES | embolism (infarction) area of cerebral tissue ([1]; Compound (I) 2˜50 mg/kg iv, 1 h ischemia, 5 h after reperfusion, dosage dependent) | cure effects compared with Nimodipine ([1]; iv 50, 10 and 2 mg/kg, overall conclusion over all indexes) | solubility [2] | SOD activity compared with normal contrast group (false surgery) [3] | causes disability, cancer, and mutation [4] | behavior obstruction caused by cerebral injuries [5] | LD50 (Acute toxicity test; im, intramuscular injection, 95% confidence margin 564.77˜603.79 mg/kg) | LD50 (Acute toxicity test; intravenous injection, 95% confidence margin 346.01˜366.64 mg/kg) | degree of denaturalization of nerve fibers [6] | number of nerve cells of necrosis [6] | water content increase of cerebral tissue in blocked area [7] | MDA content [8] | amplitude of electroencephalogram ([9]; 2 mg/kg dosage, 5 h after reperfusion) | amplitude of electroencephalogram ([9]; 50 mg/kg and 10 mg/kg, 5 h after reperfusion (p<0.01)) | toxicity finding (Rats; 100 mg/kg) | toxicity finding (Rats; 10 and 30 mg/kg) | main toxic finding (Rats; iv injection for 14 days, injury correlated positively with dosage) | behavior scores (0-5) ([5]; salt-water contrast group 3.3±1.0, p>0.05) |
| --- | --- | --- | --- | --- | --- | --- | --- | --- | --- | --- | --- | --- | --- | --- | --- | --- | --- | --- |
| CC(C)=CCC[C@](C)(OCC1OC(CO)C(O)C(O)C1O)C1CC[C@]2(C)C1[C@H](O)CC1[C@@]3(C)CC[C@H](OC4OC(CO)C(O)C(O)C4OC4OC(CO)C(O)C(O)C4O)C(C)(C)C3CC[C@]12C (stereo partly drawn) [Compound (I), 20-(S)-protopanaxadiol-3-[O-β-D-glucopyranosyl (1→2)-β-D-glucopyranosyl]-20-O-β-D-glucopyranoside] | could decrease embolism area of cerebellum tissue | better than that of active contrast drug Nimodipine | Very easy to dissolve in lower alcohol, acetone, chloroform, and hot water | no significant statistics difference | does not have these side effects | could be significantly relieved | 584 mg/kg | 356 mg/kg | could relieve the degree of denaturalization of nerve fibers | could decrease the number of nerve cells of necrosis | could significantly lower water content increase of cerebral tissue in blocked area | 65.8±19 nmol/mg tissue weight | tendency of improvement of electroencephalogram, but there was no significant statistics difference | could improve electroencephalogram significantly | poisonous dosage | minor local stimulation | inflammation of tail vein inner membrane |  |
| COCCOC(=O)C1=C(C)NC(C)=C(C(=O)OC(C)C)C1c1cccc([N+](=O)[O-])c1 (stereo not shown) [Nimodipine, reference compound] |  |  |  |  |  |  |  |  |  |  |  | 67.0±21.8 nmol/mg tissue weight |  |  |  |  |  | 2.9±1.2 scores |
